{"source": "patent US6734161B1", "about": "“Peptide nucleic acids having antibacterial activity” (priority 1997, dated 2004)", "key": {"β-lactamase": {"test_system": "β-lactamase", "conditions": "for inhibition of β-lactamase production in strain carrying two base substitutions: AS19 transformed with pLac-2, compared with pBR322; for inhibition of β-lactamase production in strain carrying 6 base substitutions: AS19 transformed with pLac-6", "procedure": "The cultures were grown at 37° C. to approximately 0.5 O.D. 550 nm. β-Lactamase activity was determined using the chromogenic β-lactamase substrate PADAC (Calbiochem, San Diego, Calif.) and absorbance measurements at 570 nm (Kobayashi, et al., Antimicrob. Agents Chemotherap., 1988, 32, 1040). β-Galactosidase activity was determined using the substrate o-nitrophenyl-β-galactoside (ONPG) and absorbance measurements at 420 nm as described previously (Miller, J. H., Experiments in Molecular Genetics, 1972, Cold Spring Harbor, N.Y., 1972, 82-85).\nThe cultures were grown at 37° C. to approximately 0.5 O.D. 550 nm.\nThe activity of PNAs in an in vivo assay was determined. […] 5-8 were included in cultures of permeable E. coli strain AS19 (Sekiguchi, ibid.) and the expression of β-galactosidase and β-lactamase was measured in cells exposed to IPTG at various time points.\nThe inhibition of β-lactamase production was evaluated by growing cells in the presence of PNA from an early stage to mid log phase.\nThe in vivo specificity of selected PNAs (SEQ ID NOs. 6 and 7) was determined using E. coli AS19 that was transformed with pBR322 and its derivatives containing the target site mutations (pLac-2 and pLac-6)."}, "[1]": {"test_system": "β-lactamase (start codon region)", "format": "biochemical, E. coli", "conditions": "for IC50: read-out: PNA concentration required for 50 % inhibition (IC50) of β-lactamase activity, S-30 cell extract, unmodified gene"}, "[2]": {"test_system": "β-Galactosidase (start codon region)", "test": "in vitro coupled transcription/translation in E. coli S-30 cell extract, β-galactosidase production", "format": "biochemical", "protocol": "(§1) Strain D10-1 was grown to mid log phase in LB media supplemented with 4 g/L glucose. The preparation of S-30 cell extracts and coupled transcription/translation reactions were carried out as described in Ellman, J., ibid., using plasmid pMAS2, which carries the E. coli gene for β-galactosidase.\nPNA oligomers (SEQ ID NOs. 5-8 above) were evaluated in an in vitro assay in which plasmid DNA encoding the genes for β-galactosidase and β-lactamase were added to a template depleted e. coli S-30 cell extract along with the reagents necessary for coupled transcription and translation (Chen, H. Z., Zubay, G., Methods in Enzymol., 1983, 101, 674-690; Ellman, J., et al., Methods in Enzymol., 1991, 202, 301-337). The assay is sensitive to inhibitors that prevent initiation of translation."}, "[3]": {"test_system": "E. coli mutant strain (AS19)", "test": "cell growth assay using E. coli (AS19)", "conditions": "100 μL liquid cultures", "procedure": "Growth assays were initiated using Luria Broth (LB) Media inoculated with 1% (v/v) of an overnight E. coli culture. […] For liquid media cultures, 100 μL of inoculated LB media was aliquoted into microtitre plate wells containing PNA or antibiotic solutions and the plates were incubated overnight at 37° C. The presence or absence of growth was assessed visually as a zone of clearing on solid media or as a lack of turbidity in liquid cultures.\nThe assay was repeated with the cells in 100 μL liquid cultures. […] The inhibition was determined to be that concentration which visibly limited the growth of the E. coli in a 100 μL culture."}, "Ribosomal RNAs [4]": {"test_system": "Ribosomal RNAs", "test": "cell-free translation assay (β-galactosidase production) with PNA targeted to ribosomal RNAs", "format": "biochemical, E. coli", "conditions": "S-30 cell extract, ONPG", "protocol": "as §1\nPlasmid DNA encoding β-galactosidase was added to a template depleted E. coli S-30 cell extract along with the reagents necessary for coupled transcription/translation (Chen, ibid; Ellman, J., ibid). Production of β-galactosidase was measured […] using the substrate ONPG (Miller, ibid). The assay is sensitive to inhibitors that prevent complete or accurate translation of the enzyme. Several of the targeted PNAs inhibited β-galactosidase production in a dose dependent manner, with IC50s in the nanomolar range. […] The SEQ ID Nos. and the sequences are shown below in Table 2.\nPNAs of similar composition, but unrelated sequence, were assayed along with targeted PNAs as controls for non-sequence specific effects. […] No inhibition was detected at a dose of 1 μM for the control PNAs."}, "E. coli strain K12": {"test_system": "E. coli strain K12", "test": "cell growth assay using E. coli (K12)", "conditions": "2 μL applied onto solid media, overnight 37° C.", "procedure": "Growth assays were initiated using Luria Broth (LB) Media inoculated with 1% (v/v) of an overnight E. coli culture. For solid media cultures, 2 mL of molten LB/agar media was inoculated and spread onto pre-warmed (LB)/agar plates. The excess molten media was poured off and the plates were left to solidity for 30 minutes. PNA and antibiotic solutions were pipetted (2 μL) directly onto the solidified overlay and the plates were incubated overnight at 37° C. For liquid media cultures, 100 μL of inoculated LB media was aliquoted into microtitre plate wells containing PNA or antibiotic solutions and the plates were incubated overnight at 37° C. The presence or absence of growth was assessed visually as a zone of clearing on solid media or as a lack of turbidity in liquid cultures.\nThe inhibition of cell growth was examined using PNA sequences 9-18 in E. coli grown on agar media. Luria broth (LB)/agar plates were prepared with a thin overlay of media containing an inoculum of E. coli strain K12. PNA solutions were applied directly onto the solidified overlay by direct pipetting of 2 μL aliquotes. After overnight incubation at 37° C., a lawn of bacterial cells was established."}, "Ribosomal RNAs [5]": {"test_system": "Ribosomal RNAs", "test": "transcription vs. translation assay (32P-UTP and 35S-methionine incorporation)", "format": "biochemical, E. coli", "conditions": "increasing concentrations of PNA", "protocol": "Transcription in the cell-free system was assayed using reactions that contained 34 μM of cold UTP and 1 μCi ^32P-UTP. After 30 minutes the reactions were stopped with 10 volumes of 5% TCA and incubated on ice for 30 minutes. Translation in the cell-free system was assayed using reactions that contained 5 mM cold UTP and 1 μCi ^35S-methionine. After 30 minutes the reactions were stopped with an equal volume of 1 M NaOH and placed at 37° C. for 15 minutes. An equal volume of cold 50% TCA containing 2% casein hydrolysate acids was added and after 30 minutes on ice, 1 mL of 5% TCA was added. The TCA precipitable material having radioactivity was collected by vacuum filtration, rinsed five times with 5% TCA and dried. Cerenkov and scintillation counting were used to determine ^32P-UTP and ^35S-methionine incorporation.\nThe transcription and translation activities yielding β-galactosidase was examined using ^32P-UTP and ^35S-methionine in the assay procedures of Example 5. With increasing concentrations of targeted PNA (SEQ ID NOs. 12 and 13), the level of radioactive methionine incorporation was reduced."}, "[6]": {"test_system": "E. coli lac repressor gene (start codon region)", "test": "PNA-mediated upregulation of beta-galactosidase on X-gal LB/agar plate", "format": "cell-based", "conditions": "lawn of E. coli AS19 on LB/agar with X-gal", "protocol": "An antisense PNA (H-[…]-Lys-NH2, SEQ ID No: 27) was prepared targeting the start codon region of the E. coli lac repressor gene. The lacR gene normally limits beta-galactosidase expression in E. coli cells that are grown in nutrient rich conditions, without lactose. The anti-lacR PNA (SEQ ID No: 27) was applied to a lawn of E. coli AS19 cells grown on a LB/agar plate containing a chromogenic beta-galactosidase substrate (X-gal). The petri plate was prepared as described above."}, "[7]": {"conditions": "concentrations as high as 400 nM"}}, "note": "{LysNH2} = C-terminal lysine amide"}
{"substance": "6 (TACTCATACTCTTCC; chemistry not given here) [compound 6]", "values": [{"measurement": "inhibition of β-lactamase production in strain carrying two base substitutions", "setting": "β-lactamase", "result": "reduced"}, {"measurement": "inhibition of β-lactamase production in strain carrying 6 base substitutions", "setting": "β-lactamase", "result": "abolished"}, {"measurement": "IC50", "setting": "[1]", "result": 0.03, "unit": "µM"}]}
{"substance": "5 (GGTCATAGCTGTTTC; all peptide nucleic acid (PNA), 3' {LysNH2}; further chemistry not fully specified) [compound 5]", "values": [{"measurement": "IC50", "setting": "[2]; read-out: PNA concentration required for 50 % inhibition (IC50) of β-galactosidase activity, S-30 cell extract, coupled transcription and translation", "result": 0.01, "unit": "µM"}]}
{"substance": "13 (NTNTNNTNTCCTCTC; listed as DNA, chemistry not given here) [compound 13]", "values": [{"measurement": "concentration which visibly limited growth", "setting": "[3]", "result": 10, "unit": "µM"}, {"measurement": "IC50", "setting": "Ribosomal RNAs [4]", "result": 0.35, "unit": "µM"}, {"measurement": "growth inhibition (zones of clearing)", "setting": "E. coli strain K12", "result": "inhibited cell growth"}, {"measurement": "level of radioactive UTP (transcription)", "setting": "Ribosomal RNAs [5]", "result": "remained the same"}, {"measurement": "level of radioactive methionine incorporation (translation)", "setting": "Ribosomal RNAs [5]", "result": "reduced"}]}
{"substance": "8 (ACGCCACATCTTCGC; chemistry not given here) [compound 8]", "values": [{"measurement": "inhibition of β-galactosidase production", "setting": "[2]; [7]", "result": "no inhibition"}, {"measurement": "inhibition of β-lactamase production", "setting": "[1]; [7]", "result": "no inhibition"}]}
{"substance": "12 (TTNTNNNTTTNTNTCTTTCCGTCTT; listed as DNA, chemistry not given here) [compound 12]", "values": [{"measurement": "concentration which visibly limited growth", "setting": "[3]", "result": 30, "unit": "µM"}, {"measurement": "IC50", "setting": "Ribosomal RNAs [4]", "result": 0.2, "unit": "µM"}, {"measurement": "growth inhibition (zones of clearing)", "setting": "E. coli strain K12", "result": "inhibited cell growth"}, {"measurement": "level of radioactive UTP (transcription)", "setting": "Ribosomal RNAs [5]", "result": "remained the same"}, {"measurement": "level of radioactive methionine incorporation (translation)", "setting": "Ribosomal RNAs [5]", "result": "reduced"}]}
{"substance": "27 (ACATTCACCACCCTG; all peptide nucleic acid (PNA), 3' {LysNH2}; further chemistry not fully specified) [compound 27]", "values": [{"measurement": "beta-galactosidase production (blue zone at sites of application)", "setting": "[6]", "result": "Increased beta-galactosidase production"}]}
{"substance": "7 (GAATACTCATACTCT; chemistry not given here) [compound 7]", "values": [{"measurement": "inhibition of β-lactamase production in strain carrying two base substitutions", "setting": "β-lactamase", "result": "reduced"}, {"measurement": "inhibition of β-lactamase production in strain carrying 6 base substitutions", "setting": "β-lactamase", "result": "abolished"}, {"measurement": "IC50", "setting": "[1]", "result": 0.2, "unit": "µM"}]}
